T1: E1-STS (Homo sapiens, UniProt P08842)
T1 sequence (P08842 22-583): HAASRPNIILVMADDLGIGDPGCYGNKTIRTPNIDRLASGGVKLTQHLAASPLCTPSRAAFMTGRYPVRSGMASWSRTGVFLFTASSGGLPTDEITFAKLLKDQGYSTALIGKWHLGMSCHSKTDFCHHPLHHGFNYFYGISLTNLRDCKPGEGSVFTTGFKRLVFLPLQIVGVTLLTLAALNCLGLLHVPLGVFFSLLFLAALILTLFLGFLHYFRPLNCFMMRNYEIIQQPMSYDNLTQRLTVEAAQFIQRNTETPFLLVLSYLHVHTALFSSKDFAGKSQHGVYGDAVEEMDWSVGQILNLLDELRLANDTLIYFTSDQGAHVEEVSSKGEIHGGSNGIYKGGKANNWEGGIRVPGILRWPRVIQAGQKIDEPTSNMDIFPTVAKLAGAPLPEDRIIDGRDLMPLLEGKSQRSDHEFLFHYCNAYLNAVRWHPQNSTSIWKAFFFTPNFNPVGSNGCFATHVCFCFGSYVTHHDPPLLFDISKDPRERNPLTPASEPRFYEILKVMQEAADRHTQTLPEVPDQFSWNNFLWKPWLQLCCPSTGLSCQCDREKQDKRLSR


How the values were obtained:
CAL51 cells = experiment: Cell Titre 96 Aqueous One Solution cell proliferation assay, CAL51 cells; format: cell-based; conditions: 2 days; for cell death compared to treatment with compound alone: in combination with TRAIL (50 or 250 ng/ml)
Description: (§1) FIGS. 1A to 1C show effects of 2-MeOEMATE and 2-EtEMATE on TRAIL induced apoptosis in CAL51 and MCF-7 cells. Cell proliferation assays in which CAL51 cells or MCF7 cells were plated at a density of 5,000 in 96 well plates and treated with 0, 0.05, 0.5 or 5 μM MeoEMATE or 2-EtEMATE in the presence of 0, 50 or 250 ng/ml recombinant human TRAIL. Results are the mean of triplicates+/−S.D. and are expressed as a percentage of results for untreated cells.
(§2) Cell proliferation was measured using the Cell Titre 96 Aqueous One Solution Cell proliferation assay (Promega). This is a colorimetric method which determines cell viability and can therefore be used to measure the ability of drugs to cause cell death. The assay is performed by adding the cell proliferation reagent directly to the cells. Metabolically active cells convert the reagent to a coloured formazan product and the absorbance at 490 nm is measured 1–4 hrs after incubation at 37° C.
(§3) For the TRAIL co-operation experiments, CAL-51 of MCF-7 cells were plated at 5,000 cells per well in 96 well plates. CAL-51 cells were treated with 0, 0.05, 0.5 or 5 μM 2-MeOEMATE or 2-EtEMATE in the presence of 0, 50 or 250 ng/ml recombinant human TRAIL. MCF7 cells were treated with 5 μM 2-MeOEMATE or 2-EtEMATE in the presence or absence of 250 ng/ml recombinant human TRAIL. Cell proliferation was measured 2 days (CAL-51) or 1 day (MCF-7) after addition of drugs. Tests were performed in triplicate and data are means of triplicate results+/−S.D. and are expressed as a percentage of results obtained for untreated cells. Experiments on CAL-51 cells were performed 4 times for each compound and once for each compound on MCF-7 cells.

MCF-7 cells = experiment: Cell Titre 96 Aqueous One Solution cell proliferation assay, MCF-7 cells; format: cell-based; conditions: 24 hrs
Description: as §1, §2, §3

caspase 3 = experiment: Western blot of caspase 3 activation in Cal51 cells; format: cell-based; conditions: Cal51 cells, 48 hours; for activation of caspase 3 compared to compound alone: 5 μM compound in combination with 250 ng/ml TRAIL; for activation of caspase 3 (reduction of unprocessed caspase 3): treatment alone, 5 μM compound or 250 ng/ml TRAIL
Description: FIG. 3. Effect of 2-MeOE2bisMATE on caspase 8 and caspase 3 activation and PARP cleavage in Cal51 cells. Western blots showing caspase 8 and caspase 3 unprocessed and active fragments and PARP uncleaved and cleaved products following treatment of Cal51 cells with solvent, 0.05, 0.5 or 5 μM 2-MeOE2bisMATE for 48 hours.
FIG. 5. Effect of 2-MeOE2bisMATE on the timing of caspase 3 and caspase 8 activation and PARP cleavage in Cal51 cells. Western blots showing caspase 3, caspase 8 and PARP unprocessed and cleaved products at 0, 8, 16, 24 and 48 hrs following treatment of Cal51 cells with 5 μM 2-MeOE2bisMATE for 48 hrs or untreated for 48 hrs (48NT).
FIG. 7. Effect of combined treatment of 2-EtEMATE or 2-MeOEMATE and TRAIL on caspase 3 activation in Cal51 cells. Western blots showing caspase 3 activation following treatment of Cal51 cells for 48 hours with solvent, 250 ng/ml TRAIL and 5 μM 2-EtEMATE or 2-MeOEMATE in the presence or absence of 250 ng/ml TRAIL. PCNA levels represent corresponding loading controls. 1, control; 2, THF solvent; 3, TRAIL; 4, 2-EtEMATE; 5,2-EtEMATE+TRAIL; 6, control; 7, THF solvent; 8, TRAIL; 9, 2-MeOEMATE; 10, 2-MeOEMATE+TRAIL
To determine whether caspases might play a role in cell death induced by 2-MeOE2bisMATE and other sulfamoylated oestrogen derivatives, we examined the expression of caspase 3, caspase 8 and PARP by immunoblotting (FIG. 3). […] Therefore, cell death induced by the 2-MeOE2bisMATE in Cal51 cells is associated with caspase activation.
There are two major pathways of apoptosis; cell surface death receptors activate caspases directly via activation of caspase 8 whereas other apoptotic stimuli operate via triggering the release of cytochrome c from mitochondria which subsequently activates caspases. Both pathways ultimately result in activation of caspase 3 and PARP cleavage. Since activation of caspase 8 is an indicator for the direct involvement of death receptors, it is important to determine whether activation of caspase 8 by 2-MeOE2bisMATE precedes or follows caspase 3 activation. We therefore performed time course experiments in Cal51 cells treated with 2-MeOE2bisMATE to order the activation events. Caspase 3 activation was first detected at 16 hours and as expected was followed by PARP cleavage at 24 hours (FIG. 5). Caspase 8 activation was a relatively late event, first detected at 48 hours. Therefore activation of caspase 3 induced by 2-MeOE2bisMATE precedes activation of caspase 8.
To further explore the mechanism for co-operation between sulfamoylated oestrones and TRAIL, we analysed activation of caspase 3 (FIG. 7). […] Therefore, sulfamoylated oestrones and TRAIL cooperate to activate caspase 3.

DR4 mRNA = experiment: RNAse protection assay, DR4 mRNA levels in Cal51 cells; format: cell-based, Human; conditions: 0.5 μM, over 48 hours
Description: (§4) RNAse protection assay showing DR5, DR4 and GAPDH mRNA levels at 0, 8, 16, 24 and 48 hours following treatment with 0.5 μM 2-MeOEMATE and 2-EtEMATE in Cal51 cells.
(§5) We investigated if the co-operation observed between TRAIL and 2-MeOEMATE or 2-EtEMATE to induce cell death in CAL51 cells was due to upregulation of DR4 and/or DR5 receptors by 2-MeOEMATE and 2-EtEMATE. We used RNAse protection assays to examine the levels of mRNAs for DR4 and DR5 following treatment of CAL51 cells with 2-MeOEMATE and 2-EtEMATE over 48 hours.
(§6) This experiment was performed once. A radiolabeled RNA multi-probe was synthesised (Pharmingen RiboQuant Human Apoptosis Multiprobe template set hAPO-3c) using [α^32P] UTP and […] RNA polymerase. This multi-probe template set allows simultaneous generation of several probes for detection and measurement of apoptosis related genes. […]
(§7) Total RNA was prepared using Trizol reagent (Gibco-BRL) from CAL-51 cells treated with 2-MeOEMATE or 2-EtEMATE for 0, 8, 16, 24 and 48 hrs. […] The gel was dried and analysed by phosphoimaging on the Personal Molecular Imager Fx (Biorad). Protected fragment bands corresponding to DR5 and GAPDH were quantified and expressed as a ratio of DR5/GAPDH to normalise results.

DR5 protein = experiment: Western blot of DR5 protein levels in Cal51 cells; format: cell-based; conditions: 48 hours, 0.05, 0.5 and 5 μM
Description: FIG. 6. […] Western blot showing DR5 protein levels following treatment of Cal51 cells for 48 hours with 0, 0.05, 0.5 and 5 μM of 2-MeOEMATE or 2-EtEMATE. PCNA levels represent corresponding loading controls.
Protein lysates were prepared from CAL51 cells treated with various compounds and analysed for expression of DR5 by immunoblotting (FIG. 6).

DR5 mRNA = experiment: RNAse protection assay, DR5 mRNA levels in Cal51 cells; format: cell-based, Human; conditions: 0.5 μM, between 24 and 48 hours
Description: as §4, §5, §6, §7

E1-STS [1] = target: T1, E1-STS; parameters: E1-STS activity in intact MCF-7 cells; endogenous in cells; host or cells: MCF-7 cells; conditions: intact MCF-7 cells, 0.1 μM; cited from earlier work
E1-STS [2] = target: T1, E1-STS; conditions: cited from earlier work
[3] = 5 μM compound in combination with 250 ng/ml TRAIL
[4] = treatment alone, 5 μM compound or 250 ng/ml TRAIL

Molecule	cell death compared to treatment with compound alone (CAL51 cells)	cell death (MCF-7 cells; [3])	cell death (MCF-7 cells; [4])	activation of caspase 3 compared to compound alone (caspase 3)	activation of caspase 3 (reduction of unprocessed caspase 3) (caspase 3)	DR4 mRNA levels (DR4 mRNA)	DR5 protein levels by western blot (DR5 protein)	DR5 mRNA levels (DR5/GAPDH) compared to untreated control (DR5 mRNA)	inhibition of E1-STS activity (E1-STS [1])	inhibition of the E1-STS enzyme (E1-STS [2])	TRAIL induced cell death (CAL51 cells; TRAIL alone (50 or 250 ng/ml))
CCc1cc2c(cc1OS(N)(=O)=O)CCC1C2CCC2(C)C(=O)CCC12 (stereo not drawn) [2-EtEMATE, 2-ethyloestrone-3-O-sulphamate]	enhanced the amount of cell death	36%	16%	further enhanced	induced activation of caspase 3	did not change significantly	did not detect a significant increase	significantly increased	–	–	–
CC12CCC3c4ccc(OS(N)(=O)=O)cc4CCC3C1CCC2=O (stereo not drawn) [EMATE, oestrone-3-sulphamate]	–	–	–	–	–	–	–	–	more than 99%	time- and concentration-dependent manner	–
COc1cc2c(cc1OS(N)(=O)=O)CCC1C2CCC2(C)C(=O)CCC12 (stereo not drawn) [2-MeOEMATE, 2-methoxyoestrone-3-O-sulphamate]	enhanced the amount of cell death	35%	13%	further enhanced	induced activation of caspase 3	did not change significantly	did not detect a significant increase	significantly increased	–	–	–
TRAIL: Tumour necrosis factor (TNF) related apoptosis inducing ligand; recombinant human TRAIL used in the tests (protein, UniProt P50591 1-281, looked up) Tumor necrosis factor ligand …: MAMMEVQGGPSLGQTCVLIVIFTVLLQSLCVAVTYVYFTNELKQMQDKYSKSGIACFLKEDDSYWDPNDEESMNSPCWQVKWQLRQLVRKMILRTSEETISTVQEKQQNISPLVRERGPQRVAAHITGTRGRSNTLSSPNSKNEKALGRKINSWESSRSGHSFLSNLHLRNGELVIHEKGFYYIYSQTYFRFQEEIKENTKNDKQMVQYIYKYTSYPDPILLMKSARNSCWSKDAEYGLYSIYQGGIFELKENDRIFVSVTNEHLIDMDHEASFFGAFLVG	–	–	12%	–	no detectable caspase 3 activation	–	–	–	–	–	resistant to TRAIL induced cell death

From US7211246B2, “Compositions comprising oestrone-3-0-sulphamate and trail (TNF-related apoptosis inducing ligand)” (Sterix Limited, priority 2001, dated 2007)
